# Patent publication US20140377340A1, “HLA-DR BINDING PEPTIDES AND THEIR USES” (priority 2007, published 2014)
# Assays:
# [1] = test system: 15 different HLA-DR molecules; experiment: HLA-DR binding assays, panel of 15 different HLA-DR molecules (breadth of binding); conditions: number of the 15 HLA-DR molecules bound (binders: 1000 nM or better)
# purified HLA DRB1*0405 = target: T1, purified HLA DRB1*0405 (Homo sapiens, UniProt P01903+P01911, A100R/A169T/D86S/F76Y/I96L/K127E/L162R/M171V/N62H/P40V/Q125Y/R42H/S133A/S149N/S66Y/V115G/V209L/W38E); experiment: HLA-DR radioligand binding inhibition assay, DRB1*0405; conditions: IC50 nM purified HLA DRB1 *0405, purified HLA DRB1*0405
# T1 construct: purified from EBV transformed homozygous cell lines or single MHC allele transfected 721.221, C1R, or fibroblast lines; made in house
# Protocol: (§1) Instead, wells of an opaque white 96-well Optiplate (Packard) are coated with 3 μg (100 μl@ 30 μg/ml) of HLA-specific antibody (Ab) that “capture” complexes of radiolabeled MHC and unlabeled peptide transferred from the molecular binding assay plate in 100 μl of 0.05% NP40/PBS. After a 3-hour incubation period, the supernatant is decanted and scintillation fluid (Microscint 20) added. Captured complexes are then measured on a microplate scintillation and luminescence counter (TopCount NXTTM; Packard).
# (§2) HLA-DR purification. Fifteen distinct HLA-DR molecules were used in quantitative assays to measure the binding of peptides to solubilized HLA-DR molecules. […] Briefly, columns of inactivated Sepharose CL4B and Protein A Sepharose were used as pre-columns. HLA-DR molecules were captured by passage of lysates over LB3.1 monoclonal antibody (anti-HLA-DRA) columns. Antibody columns were washed with 10 mM Tris-HCL, pH8.0 with 1% (v/v) NP-40, followed by PBS containing 0.4% (w/v) n-octylglucoside.
# (§3) Briefly, 1-10 nM of radiolabeled peptide was co-incubated for 2 days at either room temperature or 37° C. with 1 μM to 1 nM purified HLA-DR molecules in the presence of a cocktail of protease inhibitors. Assays were performed at various pH conditions, ranging from pH 4 to pH 7. […] After incubation, the percentage of HLA-DR-bound radioactivity is determined by capturing HLA-DR/peptide complexes on Optiplates (Packard Instruments, Meriden, Conn.) coated with the LB3.1 antibody and determining bound counts per minute using the TopCount microscintillation counter (Packard Instruments).
# purified HLA DRB1*1501 = target: T2, purified HLA DRB1*1501 (Homo sapiens, UniProt P01903+P01911); experiment: HLA-DR radioligand binding inhibition assay, DRB1*1501
# T2 construct: purified from EBV transformed homozygous cell lines or single MHC allele transfected 721.221, C1R, or fibroblast lines; made in house
# Protocol: as §1, §2, §3
# purified HLA DRB1*1101 = target: T3, purified HLA DRB1*1101 (Homo sapiens, UniProt P01903+P01911, A100R/A169T/A87E/I96F/K41T/L162R/M171V/P40S/Q125H/Q178H/Q39Y/Q99D/R42S/S66Y/T262R/V115G/W38E); experiment: HLA-DR radioligand binding inhibition assay, DRB1*1101; conditions: IC50 nM purified HLA DRB1 *1101, purified HLA DRB1*1101
# T3 construct: purified from EBV transformed homozygous cell lines or single MHC allele transfected 721.221, C1R, or fibroblast lines; made in house
# T3 sequence (P01903 26-254, other chains not shown): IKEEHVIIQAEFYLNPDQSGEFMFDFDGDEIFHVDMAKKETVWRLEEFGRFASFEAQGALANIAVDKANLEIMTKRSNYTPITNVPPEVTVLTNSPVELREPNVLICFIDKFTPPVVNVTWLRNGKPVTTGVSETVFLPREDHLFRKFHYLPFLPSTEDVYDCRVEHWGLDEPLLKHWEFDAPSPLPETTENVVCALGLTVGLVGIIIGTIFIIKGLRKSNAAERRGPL
# Protocol: as §1, §2, §3
# purified HLA DRB1*0401 = target: T4, purified HLA DRB1*0401 (Homo sapiens, UniProt P01903+P01911, A100K/A169T/F76Y/I96L/K127E/L162R/M171V/N62H/P40V/Q125Y/R42H/S133A/S149N/S66Y/V115G/V209L/W38E); experiment: HLA-DR radioligand binding inhibition assay, DRB1*0401; conditions: IC50 nM purified HLA DRB1 *0401, purified HLA DRB1*0401
# T4 construct: purified from EBV transformed homozygous cell lines or single MHC allele transfected 721.221, C1R, or fibroblast lines; made in house
# Protocol: as §1, §2, §3
# purified HLA DRB5*0101 = target: T5, purified HLA DRB5*0101 (Homo sapiens, UniProt P01903+Q30154); experiment: HLA-DR radioligand binding inhibition assay, DRB5*0101; conditions: IC50 nM purified HLA DRB5 *0101, purified HLA DRB5*0101
# T5 construct: purified from EBV transformed homozygous cell lines or single MHC allele transfected 721.221, C1R, or fibroblast lines; made in house
# Protocol: as §1, §2, §3
Compound,Total XRN [1],further results
CC[C@H](C)[C@H](NC(=O)[C@@H](NC(=O)[C@@H](NC(=O)[C@H](Cc1ccccc1)NC(=O)[C@H](CCCNC(=N)N)NC(=O)[C@H](CCC(N)=O)NC(=O)[C@@H]1CCCN1C(=O)[C@H](CC(=O)O)NC(=O)[C@H](CCCNC(=N)N)NC(=O)[C@H](C)NC(=O)[C@H](CCSC)NC(=O)[C@H](CCCNC(=N)N)NC(=O)[C@H](CO)NC(=O)[C@@H](N)Cc1ccccc1)C(C)C)C(C)C)C(=O)N[C@@H](CCC(N)=O)C(=O)O [Peptide 9019.0004],10,
CC(C)C[C@H](NC(=O)[C@H](CO)NC(=O)[C@H](C)NC(=O)[C@H](CC(N)=O)NC(=O)[C@@H](NC(=O)[C@@H]1CCCN1C(=O)[C@H](CC(C)C)NC(=O)[C@H](Cc1ccc(O)cc1)NC(=O)[C@@H](NC(=O)[C@@H](N)CC(C)C)[C@@H](C)O)[C@@H](C)O)C(=O)N[C@@H](CO)C(=O)N[C@@H](Cc1ccccc1)C(=O)N[C@@H](CC(C)C)C(=O)N[C@@H](CCC(N)=O)C(=O)N[C@@H](CC(=O)O)C(=O)O [Peptide 9019.0031],12,
CC[C@H](C)[C@H](NC(=O)[C@H](CCC(=O)O)NC(=O)[C@@H](NC(=O)[C@H](CC(C)C)NC(=O)[C@H](CO)NC(=O)[C@H](CCCNC(=N)N)NC(=O)[C@H](CC(C)C)NC(=O)[C@H](CCC(N)=O)NC(=O)[C@H](CC(C)C)NC(=O)[C@H](CCC(=O)O)NC(=O)[C@H](CCCNC(=N)N)NC(=O)[C@H](CC(C)C)NC(=O)CNC(=O)CNC(=O)[C@@H]1CCCN1)[C@@H](C)O)C(=O)O [Peptide 9019.0038],,IC50 (purified HLA DRB1*0405): 110 nM; IC50 (purified HLA DRB1*1501): 4410 nM
CC[C@H](C)[C@H](NC(=O)[C@H](CC(C)C)NC(=O)[C@H](C)NC(=O)[C@H](CC(C)C)NC(=O)CNC(=O)[C@H](CO)NC(=O)CNC(=O)[C@H](CC(C)C)NC(=O)[C@H](CCC(=O)O)NC(=O)[C@H](CCCNC(=N)N)NC(=O)[C@H](CC(C)C)NC(=O)[C@H](CO)NC(=O)[C@H](CCCNC(=N)N)NC(=O)[C@@H](N)CC(C)C)C(=O)N[C@@H](Cc1c[nH]cn1)C(=O)O [Peptide 9019.0057],12,
CC[C@H](C)[C@H](NC(=O)[C@@H](NC(=O)[C@H](CC(C)C)NC(=O)[C@H](CCCCN)NC(=O)[C@H](C)NC(=O)[C@@H](N)[C@@H](C)O)[C@@H](C)O)C(=O)N[C@@H](CCC(=O)O)C(=O)N[C@@H](CO)C(=O)N[C@H](C(=O)N1CCC[C@H]1C(=O)N[C@@H](Cc1ccccc1)C(=O)N[C@@H](CC(N)=O)C(=O)N[C@H](C(=O)N[C@@H](C)C(=O)N[C@@H](CCC(=O)O)C(=O)O)C(C)C)[C@@H](C)O [Peptide 9019.0106],9,
CC[C@H](C)[C@H](NC(=O)[C@@H](NC(=O)[C@H](Cc1c[nH]cn1)NC(=O)[C@H](CC(C)C)NC(=O)[C@@H](NC(=O)[C@H](CC(C)C)NC(=O)[C@@H](N)Cc1ccccc1)[C@@H](C)O)C(C)C)C(=O)N[C@@H](CCCCN)C(=O)N[C@@H](CO)C(=O)N[C@@H](CC(=O)O)C(=O)N[C@@H](CC(C)C)C(=O)N[C@H](C(=O)N[C@@H](CC(N)=O)C(=O)N[C@@H](CCC(=O)O)C(=O)N[C@@H](CCC(=O)O)C(=O)O)C(C)C [Peptide 9019.0114],11,
CC(C)[C@H](NC(=O)[C@H](Cc1ccccc1)NC(=O)[C@H](Cc1c[nH]c2ccccc12)NC(=O)[C@H](CO)NC(=O)[C@H](Cc1ccc(O)cc1)NC(=O)[C@@H](N)CCC(N)=O)C(=O)N[C@@H](CC(N)=O)C(=O)NCC(=O)N[C@H](C(=O)N[C@@H](Cc1ccccc1)C(=O)N[C@@H](CCC(N)=O)C(=O)N[C@@H](CCC(N)=O)C(=O)N[C@@H](CO)C(=O)N[C@H](C(=O)N[C@@H](CCC(N)=O)C(=O)O)[C@@H](C)O)[C@@H](C)O [Peptide 9019.0122],,IC50 (purified HLA DRB1*1501): > 20000 nM; IC50 (purified HLA DRB1*1101): 230 nM; IC50 (purified HLA DRB1*0401): 21 nM
CC[C@H](C)[C@H](NC(=O)[C@H](CC(N)=O)NC(=O)[C@@H]1CCCN1C(=O)[C@@H](NC(=O)[C@H](Cc1ccccc1)NC(=O)[C@H](CC(C)C)NC(=O)[C@H](CCC(=O)O)NC(=O)[C@@H](N)CCC(N)=O)[C@@H](C)CC)C(=O)N[C@H](C(=O)N[C@H](C(=O)N[C@@H](CC(N)=O)C(=O)N[C@@H](CC(N)=O)C(=O)N[C@@H](CO)C(=O)NCC(=O)N[C@@H](CO)C(=O)O)C(C)C)[C@@H](C)O [Peptide 9019.0123],9,
CC[C@H](C)[C@H](NC(=O)[C@@H](NC(=O)[C@@H](NC(=O)[C@@H](NC(=O)[C@@H](NC(=O)[C@@H](NC(=O)[C@@H](N)CCCNC(=N)N)[C@@H](C)O)[C@@H](C)O)C(C)C)[C@@H](C)O)[C@@H](C)O)C(=O)N[C@H](C(=O)N[C@H](C(=O)N[C@@H](Cc1ccc(O)cc1)C(=O)N[C@@H](C)C(=O)N[C@@H](CCC(=O)O)C(=O)N1CCC[C@H]1C(=O)N1CCC[C@H]1C(=O)N[C@@H](CCCCN)C(=O)O)C(C)C)[C@@H](C)O [Peptide 9019.0124],,IC50 (purified HLA DRB1*0405): 32 nM; IC50 (purified HLA DRB1*1501): 83 nM; IC50 (purified HLA DRB1*1101): > 20000 nM
CC[C@H](C)[C@H](NC(=O)[C@@H](NC(=O)[C@@H]1CCCN1C(=O)[C@H](CC(=O)O)NC(=O)[C@@H](N)CO)C(C)C)C(=O)N[C@@H](CC(C)C)C(=O)N[C@@H](CC(N)=O)C(=O)N[C@H](C(=O)N[C@@H](CC(C)C)C(=O)N[C@@H](Cc1ccc(O)cc1)C(=O)NCC(=O)N1CCC[C@H]1C(=O)N[C@@H](CC(=O)O)C(=O)N[C@@H](CC(=O)O)C(=O)N1CCC[C@H]1C(=O)O)C(C)C [Peptide 9019.0127],,IC50 (purified HLA DRB5*0101): > 20000 nM; IC50 (purified HLA DRB1*1501): 5700 nM

# Now from value to compound, other results behind:
Total XRN [1],Compound,further results
14,CC[C@H](C)[C@H](NC(=O)[C@H](CCCNC(=N)N)NC(=O)CNC(=O)[C@H](CCCNC(=N)N)NC(=O)[C@@H](NC(=O)[C@@H](NC(=O)[C@H](CCC(N)=O)NC(=O)[C@H](CC(C)C)NC(=O)[C@H](CC(N)=O)NC(=O)[C@H](CCC(N)=O)NC(=O)[C@H](Cc1ccccc1)NC(=O)[C@@H](NC(=O)[C@H](CO)NC(=O)[C@@H](N)CC(C)C)C(C)C)C(C)C)[C@@H](C)CC)C(=O)N[C@@H](CC(C)C)C(=O)O [Peptide 9019.0052],
8,CC[C@H](C)[C@H](NC(=O)[C@H](CCC(N)=O)NC(=O)[C@H](CCCNC(=N)N)NC(=O)[C@H](CC(N)=O)NC(=O)CNC(=O)[C@H](CC(=O)O)NC(=O)[C@@H](NC(=O)[C@H](CCCNC(=N)N)NC(=O)[C@H](CCC(=O)O)NC(=O)CNC(=O)[C@H](CCCCN)NC(=O)[C@H](Cc1ccc(O)cc1)NC(=O)[C@H](Cc1c[nH]c2ccccc12)NC(=O)[C@H](CO)NC(=O)[C@@H](N)Cc1ccc(O)cc1)C(C)C)C(=O)O [Peptide 9019.0108],
10,CC[C@H](C)[C@H](NC(=O)[C@H](CC(C)C)NC(=O)[C@H](CC(C)C)NC(=O)[C@H](CO)NC(=O)[C@H](C)NC(=O)[C@H](CC(N)=O)NC(=O)[C@@H]1CCCN1C(=O)[C@H](Cc1ccc(O)cc1)NC(=O)[C@@H](NC(=O)[C@@H](NC(=O)[C@H](CCC(=O)O)NC(=O)[C@H](CCCNC(=N)N)NC(=O)CN)[C@@H](C)CC)[C@@H](C)CC)C(=O)N[C@@H](CCC(N)=O)C(=O)N[C@@H](CC(N)=O)C(=O)O [Peptide 9019.0112],
10,CC(C)C[C@H](NC(=O)[C@@H](N)Cc1ccc(O)cc1)C(=O)N[C@@H](Cc1c[nH]c2ccccc12)C(=O)N[C@@H](Cc1c[nH]c2ccccc12)C(=O)N[C@H](C(=O)N[C@@H](CC(N)=O)C(=O)N[C@@H](CC(N)=O)C(=O)N[C@@H](CCC(N)=O)C(=O)N[C@@H](CO)C(=O)N[C@@H](CC(C)C)C(=O)N1CCC[C@H]1C(=O)N[C@H](C(=O)N[C@@H](CO)C(=O)N1CCC[C@H]1C(=O)N[C@@H](CCCNC(=N)N)C(=O)O)C(C)C)C(C)C [Peptide 9019.0126],
10,CC(C)C[C@H](NC(=O)[C@H](CO)NC(=O)[C@H](CC(C)C)NC(=O)[C@H](CC(N)=O)NC(=O)[C@@H](NC(=O)CNC(=O)[C@@H]1CCCN1C(=O)[C@H](CCCNC(=N)N)NC(=O)[C@H](Cc1ccc(O)cc1)NC(=O)[C@H](Cc1ccc(O)cc1)NC(=O)[C@@H](NC(=O)[C@H](Cc1ccc(O)cc1)NC(=O)[C@@H](N)CO)[C@@H](C)O)C(C)C)C(=O)N[C@@H](CO)C(=O)N[C@@H](CS)C(=O)O [Peptide 9019.0128],
